Data published in US9969726B2, “Metabotropic glutamate receptor negative allosteric modulators (NAMS) and uses thereof” (Sanford-Burnham Medical Research Institute, priority 2014, dated 2018).
Where two headings read alike, the source gives them in different places.

Columns and labels:
rat mGlu3 receptor = rat mGlu3 receptor (Rattus norvegicus (Rat), UniProt P31422); assay: mGlu3 in vitro GIRK thallium flux assay; assay type: cell-based; details: NAM; 2.5 min compound incubation; EC80 glutamate; HEK-293 GIRK cells
Chain of rat mGlu3 receptor (P31422 23-879): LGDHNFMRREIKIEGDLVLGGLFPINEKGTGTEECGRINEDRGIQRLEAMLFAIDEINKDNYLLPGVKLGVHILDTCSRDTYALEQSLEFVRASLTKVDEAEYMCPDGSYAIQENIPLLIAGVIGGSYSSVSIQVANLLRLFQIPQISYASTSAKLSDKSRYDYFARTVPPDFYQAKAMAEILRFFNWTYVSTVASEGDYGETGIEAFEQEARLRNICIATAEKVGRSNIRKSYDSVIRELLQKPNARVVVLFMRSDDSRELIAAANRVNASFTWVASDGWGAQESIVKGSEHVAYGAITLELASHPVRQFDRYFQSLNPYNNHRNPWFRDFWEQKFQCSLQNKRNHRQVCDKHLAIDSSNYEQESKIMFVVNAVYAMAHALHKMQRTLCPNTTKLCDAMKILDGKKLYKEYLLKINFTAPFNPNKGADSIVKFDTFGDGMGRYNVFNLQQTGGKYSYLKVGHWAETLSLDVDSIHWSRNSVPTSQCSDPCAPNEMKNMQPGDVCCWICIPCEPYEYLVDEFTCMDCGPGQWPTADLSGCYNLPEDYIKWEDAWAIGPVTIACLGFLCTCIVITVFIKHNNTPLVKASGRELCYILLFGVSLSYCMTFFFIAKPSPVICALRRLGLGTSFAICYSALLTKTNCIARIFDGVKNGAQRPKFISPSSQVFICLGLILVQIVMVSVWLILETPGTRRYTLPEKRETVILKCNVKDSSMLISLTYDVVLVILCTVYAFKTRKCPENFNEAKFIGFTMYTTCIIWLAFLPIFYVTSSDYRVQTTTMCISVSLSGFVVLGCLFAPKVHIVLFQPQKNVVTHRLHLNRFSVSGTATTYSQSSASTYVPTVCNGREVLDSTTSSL
In short: (§1)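 Cells expressing rat mGlu2 or mGlu3 with GIRK, plated overnight at 37 °C. Test compounds (0.3% DMSO, 10-point 1:3 series) preincubated 2.5 or 60 min, then thallium buffer plus EC80 glutamate added. Fluorescence slope 5–15 s after addition, normalised to vehicle and maximal agonist, fitted by four-parameter logistic.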

rat mGlu2 receptor = rat mGlu2 receptor (Rattus norvegicus (Rat), UniProt P31421); assay: mGlu2 in vitro GIRK thallium flux assay; assay type: cell-based; details: NAM, EC80 glutamate, HEK-293 GIRK cells
Chain of rat mGlu2 receptor (P31421 19-872): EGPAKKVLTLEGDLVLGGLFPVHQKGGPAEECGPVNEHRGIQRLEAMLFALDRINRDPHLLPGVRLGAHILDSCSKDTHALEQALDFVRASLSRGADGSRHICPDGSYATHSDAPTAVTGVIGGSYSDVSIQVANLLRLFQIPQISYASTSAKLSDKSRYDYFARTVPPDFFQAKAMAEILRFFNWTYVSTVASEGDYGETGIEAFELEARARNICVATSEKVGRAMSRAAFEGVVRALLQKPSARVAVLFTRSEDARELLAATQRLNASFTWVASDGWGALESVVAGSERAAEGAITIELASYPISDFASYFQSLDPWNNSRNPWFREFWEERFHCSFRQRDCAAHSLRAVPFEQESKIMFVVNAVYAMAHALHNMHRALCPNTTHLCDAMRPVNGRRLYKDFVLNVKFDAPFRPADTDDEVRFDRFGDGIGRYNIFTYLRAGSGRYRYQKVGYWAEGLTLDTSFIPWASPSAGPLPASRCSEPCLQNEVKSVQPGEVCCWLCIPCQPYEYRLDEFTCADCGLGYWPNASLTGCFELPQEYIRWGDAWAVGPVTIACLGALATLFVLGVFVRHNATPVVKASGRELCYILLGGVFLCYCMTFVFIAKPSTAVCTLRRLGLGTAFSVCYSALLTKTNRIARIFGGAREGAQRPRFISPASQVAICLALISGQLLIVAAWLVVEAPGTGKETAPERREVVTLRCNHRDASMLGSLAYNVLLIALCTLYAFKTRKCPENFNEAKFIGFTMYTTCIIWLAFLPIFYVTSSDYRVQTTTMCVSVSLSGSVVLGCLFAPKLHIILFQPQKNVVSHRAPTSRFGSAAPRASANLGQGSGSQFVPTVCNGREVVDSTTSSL
In short: as §1

[1] = 2.5 min compound incubation, read-out: mGlu2 EC50 (μM) (2.5 min)
[2] = read-out: mGlu2 EC50 (μM) (60 min), 60 min compound incubation
[3] = mGlu2 EC50 (μM) (60 min), 60 min compound incubation

`O=C(O)c1cc(-c2cccc(-c3nc(-c4cc(C(F)(F)F)cc(C(F)(F)F)c4)cc(C(F)(F)F)n3)c2)ccc1F` [Example 105, 3′-(4-(3,5-Bis(trifluoromethyl)phenyl)-6-(trifluoromethyl)pyrimidin-2-yl)-4-fluorobiphenyl-3-carboxylic Acid] gave an EC50 (rat mGlu3 receptor) of over 10 µM, an EC50 (rat mGlu2 receptor; [1]) of over 10 µM and an EC50 (rat mGlu2 receptor; [2]) of 3.19 µM.

Work on `O=C(O)c1cc(-c2cccc(-c3nc(-c4ccc[nH]4)cc(C(F)(F)F)n3)c2)ccc1F` [Example 106, 3′-(4-(1H-Pyrrol-2-yl)-6-(trifluoromethyl)pyrimidin-2-yl)-4-fluorobiphenyl-3-carboxylic Acid] yielded an EC50 (rat mGlu3 receptor) of 5.06 µM, an EC50 (rat mGlu2 receptor; [1]) of 1.19 µM and an EC50 (rat mGlu2 receptor; [2]) of 1.42 µM.

`O=C(O)c1cc(-c2cccc(-c3nc(-c4sccc4Cl)cc(C(F)(F)F)n3)c2)ccc1F` [Example 107, 3′-(4-(3-Chlorothiophen-2-yl)-6-(trifluoromethyl)pyrimidin-2-yl)-4-fluorobiphenyl-3-carboxylic Acid] gave an EC50 (rat mGlu3 receptor) of over 10 µM and an EC50 (rat mGlu2 receptor; [1]) of 4.53 µM.

`O=C(O)c1cc(-c2cccc(-c3nc(-c4ccc(C(F)(F)F)cc4)cc(C(F)(F)F)n3)c2)ccc1F` [Example 108, 4-Fluoro-3′-(4-(trifluoromethyl)-6-(4-(trifluoromethyl)phenyl)pyrimidin-2-yl)biphenyl-3-carboxylic Acid] was tested, and the EC50 (rat mGlu3 receptor) was 1.49 µM and the EC50 (rat mGlu2 receptor; [1]) was 1.5 µM.

For `O=C(O)c1cc(-c2cccc(-c3nc(-c4nccs4)cc(C(F)(F)F)n3)c2)ccc1F` [Example 109, 4-Fluoro-3′-(4-(thiazol-2-yl)-6-(trifluoromethyl)pyrimidin-2-yl)biphenyl-3-carboxylic Acid], the EC50 (rat mGlu3 receptor) was 2.13 µM, the EC50 (rat mGlu2 receptor; [1]) was 1.34 µM and the EC50 (rat mGlu2 receptor; [2]) was 0.297 µM.

Compound `O=C(O)c1cc(-c2cccc(-c3nc(-c4ccc(Cl)cc4F)cc(C(F)(F)F)n3)c2)ccc1F` [Example 110, 3′-(4-(4-Chloro-2-fluorophenyl)-6-(trifluoromethyl)pyrimidin-2-yl)-4-fluorobiphenyl-3-carboxylic Acid] has an EC50 (rat mGlu3 receptor) of 5.34 µM, an EC50 (rat mGlu2 receptor; [1]) of 4.08 µM and an EC50 (rat mGlu2 receptor; [2]) of 0.65 µM.

`Cc1noc(C)c1-c1cc(C(F)(F)F)nc(-c2cccc(-c3ccc(F)c(C(=O)O)c3)c2)n1` [Example 111, 3′-(4-(3,5-Dimethylisoxazol-4-yl)-6-(trifluoromethyl)pyrimidin-2-yl)-4-fluorobiphenyl-3-carboxylic Acid] gave an EC50 (rat mGlu3 receptor) of over 10 µM, an EC50 (rat mGlu2 receptor; [1]) of over 10 µM and an EC50 (rat mGlu2 receptor; [2]) of over 10 µM.

`Cc1ccc(-c2cc(C(F)(F)F)nc(-c3cccc(-c4ccc(F)c(C(=O)O)c4)c3)n2)s1` [Example 112, 4-Fluoro-3′-(4-(5-methylthiophen-2-yl)-6-(trifluoromethyl)pyrimidin-2-yl)biphenyl-3-carboxylic Acid] gave an EC50 (rat mGlu3 receptor) of 3.14 µM, an EC50 (rat mGlu2 receptor; [1]) of 3.19 µM and an EC50 (rat mGlu2 receptor; [2]) of 0.75 µM.

`O=C(O)c1cc(F)cc(-c2cccc(-c3nc(-c4ccoc4)cc(C(F)(F)F)n3)c2)c1` [Example 113, 5-Fluoro-3′-(4-(furan-3-yl)-6-(trifluoromethyl)pyrimidin-2-yl)biphenyl-3-carboxylic Acid] showed an EC50 (rat mGlu3 receptor) of 1.15 µM, an EC50 (rat mGlu2 receptor; [1]) of 0.4 µM and an EC50 (rat mGlu2 receptor; [2]) of 0.23 µM.

`O=C(O)c1cccc(-c2cccc(-c3nc(-c4ccoc4)cc(C(F)(F)F)n3)c2)c1` [Example 115, 3′-(4-(Furan-3-yl)-6-(trifluoromethyl)pyrimidin-2-yl)biphenyl-3-carboxylic acid] gave an EC50 (rat mGlu3 receptor) of 0.96 µM, an EC50 (rat mGlu2 receptor; [1]) of 0.28 µM and an EC50 (rat mGlu2 receptor; [2]) of 0.12 µM.

`O=C(O)c1cc(-c2cccc(-c3nc(-c4cccnc4)cc(C(F)(F)F)n3)c2)ccc1F` [Example 116, 4-Fluoro-3′-(4-(pyridin-3-yl)-6-(trifluoromethyl)pyrimidin-2-yl)biphenyl-3-carboxylic Acid] was tested, and the EC50 (rat mGlu3 receptor) was 8.58 µM, the EC50 (rat mGlu2 receptor; [1]) was 2.11 µM and the EC50 (rat mGlu2 receptor; [2]) was 0.27 µM.

`Cc1cc(-c2ccoc2)nc(-c2cccc(-c3ccc(F)c(C(=O)O)c3)c2)n1` [Example 117, 4-Fluoro-3′-(4-(furan-3-yl)-6-methylpyrimidin-2-yl)biphenyl-3-carboxylic acid] was tested, and the EC50 (rat mGlu3 receptor) was 0.28 µM, the EC50 (rat mGlu2 receptor; [1]) was 0.08 µM and the EC50 (rat mGlu2 receptor; [2]) was 0.07 µM.

In the case of `O=C(O)c1cc(-c2cccc(-c3nccc(-c4ccoc4)n3)c2)ccc1F` [Example 118, 4-Fluoro-3′-(4-(furan-3-yl)pyrimidin-2-yl)biphenyl-3-carboxylic Acid], the EC50 (rat mGlu3 receptor) is reported as 1.38 µM, the EC50 (rat mGlu2 receptor; [1]) is reported as 0.26 µM and the EC50 (rat mGlu2 receptor; [2]) is reported as 1.01 µM.

In the case of `Cc1cc(-c2ccoc2)nc(-c2cccc(-c3cccc(C(=O)O)c3)c2)n1` [Example 119, 3′-(4-(Furan-3-yl)-6-methylpyrimidin-2-yl)biphenyl-3-carboxylic Acid], the EC50 (rat mGlu3 receptor) is reported as 0.35 µM, the EC50 (rat mGlu2 receptor; [1]) is reported as 0.05 µM and the EC50 (rat mGlu2 receptor; [2]) is reported as 0.06 µM.

`COc1ccc(-c2cc(C(F)(F)F)nc(-c3cccc(-c4ccc(F)c(C(=O)O)c4)c3)n2)cn1` [Example 120, 4-Fluoro-3′-(4-(6-methoxypyridin-3-yl)-6-(trifluoromethyl)pyrimidin-2-yl)-[1,1′-biphenyl]-3-carboxylic Acid] was tested, and the EC50 (rat mGlu3 receptor) was 1.41 µM, the EC50 (rat mGlu2 receptor; [1]) was 1.43 µM and the EC50 (rat mGlu2 receptor; [2]) was 0.35 µM.

For `Cc1cc(-c2ccoc2)nc(-c2cccc(-c3cc(F)cc(C(=O)O)c3)c2)n1` [Example 121, 5-Fluoro-3′-(4-(furan-3-yl)-6-methylpyrimidin-2-yl)-[1,1′-biphenyl]-3-carboxylic Acid], the EC50 (rat mGlu3 receptor) was 2.21 µM, the EC50 (rat mGlu2 receptor; [1]) was 0.35 µM and the EC50 (rat mGlu2 receptor; [3]) was 0.31 µM.

Compound `FC(F)(F)c1ccc(-c2cc(C(F)(F)F)nc(-c3cccc(-c4cccc(-c5nn[nH]n5)c4)c3)n2)cn1` [Example 123, 2-(3′-(2H-Tetrazol-5-yl)biphenyl-3-yl)-4-(trifluoromethyl)-6-(6-(trifluoromethyl)pyridin-3-yl)pyrimidine] has an EC50 (rat mGlu3 receptor) of 2.39 µM, an EC50 (rat mGlu2 receptor; [1]) of 0.75 µM and an EC50 (rat mGlu2 receptor; [2]) of 0.43 µM.

Work on `NS(=O)(=O)c1cccc(-c2cn(-c3nc(-c4ccc(C(F)(F)F)nc4)cc(C(F)(F)F)n3)cn2)c1` [Example 125, 3-(1-(4-(Trifluoromethyl)-6-(6-(trifluoromethyl)pyridin-3-yl)pyrimidin-2-yl)-1H-imidazol-4-yl)benzenesulfonamide] yielded an EC50 (rat mGlu3 receptor) of over 30 µM, an EC50 (rat mGlu2 receptor; [1]) of over 10 µM and an EC50 (rat mGlu2 receptor; [2]) of over 10 µM.

For `Nc1cccc(-c2cn(-c3nc(-c4ccc(C(F)(F)F)nc4)cc(C(F)(F)F)n3)cn2)c1` [Example 126, 3-(1-(4-(Trifluoromethyl)-6-(6-(trifluoromethyl)pyridin-3-yl)pyrimidin-2-yl)-1H-imidazol-4-yl)aniline], the EC50 (rat mGlu3 receptor) was over 30 µM, the EC50 (rat mGlu2 receptor; [1]) was over 30 µM and the EC50 (rat mGlu2 receptor; [2]) was over 10 µM.

Compound `O=C(O)c1cc(-c2cccc(Nc3nc(-c4ccco4)cc(C(F)(F)F)n3)c2)ccc1F` [Example 127, 4-Fluoro-3′-(4-(furan-2-yl)-6-(trifluoromethyl)pyrimidin-2-ylamino)biphenyl-3-carboxylic Acid] has an EC50 (rat mGlu3 receptor) of 3.9 µM, an EC50 (rat mGlu2 receptor; [1]) of 5.33 µM and an EC50 (rat mGlu2 receptor; [2]) of over 10 µM.

In the case of `O=C(O)c1cc(-c2cccc(Oc3nc(-c4ccco4)cc(C(F)(F)F)n3)c2)ccc1F` [Example 128, 4-Fluoro-3′-(4-(furan-2-yl)-6-(trifluoromethyl)pyrimidin-2-yloxy)biphenyl-3-carboxylic Acid], the EC50 (rat mGlu3 receptor) is reported as over 30 µM, the EC50 (rat mGlu2 receptor; [1]) is reported as over 30 µM and the EC50 (rat mGlu2 receptor; [2]) is reported as over 30 µM.

`O=C(O)c1cc(-c2cccc(Sc3nc(-c4ccco4)cc(C(F)(F)F)n3)c2)ccc1F` [Example 129, 4-Fluoro-3′-(4-(furan-2-yl)-6-(trifluoromethyl)pyrimidin-2-ylthio)biphenyl-3-carboxylic Acid] was tested, and the EC50 (rat mGlu3 receptor) was over 10 µM, the EC50 (rat mGlu2 receptor; [1]) was over 10 µM and the EC50 (rat mGlu2 receptor; [2]) was 3.25 µM.

Compound `Fc1ccc(C#Cc2cccc(-c3nc(-c4ccc(C(F)(F)F)nc4)cc(C(F)(F)F)n3)c2)cc1` [Example 130, 2-(3-((4-Fluorophenyl)ethynyl)phenyl)-4-(trifluoromethyl)-6-(6-(trifluoromethyl)pyridin-3-yl)pyrimidine] has an EC50 (rat mGlu3 receptor) of over 30 µM, an EC50 (rat mGlu2 receptor; [1]) of over 30 µM and an EC50 (rat mGlu2 receptor; [2]) of over 10 µM.

`O=C(NO)c1cc(-c2cccc(-c3nc(-c4ccoc4)cc(C(F)(F)F)n3)c2)ccc1F` [Example 131, 4-Fluoro-3′-(4-(furan-3-yl)-6-(trifluoromethyl)pyrimidin-2-yl)-N-hydroxy-[1,1′-biphenyl]-3-carboxamide] gave an EC50 (rat mGlu3 receptor) of over 10 µM, an EC50 (rat mGlu2 receptor; [1]) of over 10 µM and an EC50 (rat mGlu2 receptor; [2]) of 3.36 µM.

Compound `CONC(=O)c1cc(-c2cccc(-c3nc(-c4ccoc4)cc(C(F)(F)F)n3)c2)ccc1F` [Example 132, 4-Fluoro-3′-(4-(furan-3-yl)-6-(trifluoromethyl)pyrimidin-2-yl)-N-methoxy-[1,1′-biphenyl]-3-carboxamide] has an EC50 (rat mGlu3 receptor) of 5.26 µM, an EC50 (rat mGlu2 receptor; [1]) of over 10 µM and an EC50 (rat mGlu2 receptor; [2]) of 7.1 µM.

Work on `Cc1cc2c(cc1C(F)(F)F)NC(=O)CC(c1cccc(Oc3ccccc3)c1)=N2` [Example 143, 7-Methyl-4-(3-phenoxyphenyl)-8-(trifluoromethyl)-1H-benzo[b][1, 4]diazepin-2 (3H)-one] yielded an EC50 (rat mGlu3 receptor) of 2.62 µM, an EC50 (rat mGlu2 receptor; [1]) of 2.21 µM and an EC50 (rat mGlu2 receptor; [3]) of 1.19 µM.

`Cc1cc2c(cc1C(F)(F)F)NC(=O)CC(c1cccc(OCc3ccccc3)c1)=N2` [Example 144, 4-(3-(Benzyloxy)phenyl)-7-methyl-8-(trifluoromethyl)-1H-benzo[b][1,4]diazepin-2(3H)-one] gave an EC50 (rat mGlu3 receptor) of 2.93 µM, an EC50 (rat mGlu2 receptor; [1]) of over 10 µM and an EC50 (rat mGlu2 receptor; [3]) of 2.36 µM.

With `Cc1cc2c(cc1C(F)(F)F)NC(=O)CC(c1cccc(Oc3cccc(Br)c3)c1)=N2` [Example 145, 4-(3-(3-Bromophenoxy)phenyl)-7-methyl-8-(trifluoromethyl)-1H-benzo[b][1,4]diazepin-2(3H)-one] the EC50 (rat mGlu3 receptor) was over 10 µM, the EC50 (rat mGlu2 receptor; [1]) was over 10 µM and the EC50 (rat mGlu2 receptor; [2]) was over 10 µM.

Work on `Cc1cc2c(cc1C(F)(F)F)NC(=O)CC(c1cccc(Oc3cc(F)cc(F)c3)c1)=N2` [Example 146, 4-(3-(3,5-difluorophenoxy)phenyl)-7-methyl-8-(trifluoromethyl)-1H-benzo[b][1,4]diazepin-2(3H)-one] yielded an EC50 (rat mGlu3 receptor) of over 10 µM, an EC50 (rat mGlu2 receptor; [1]) of over 10 µM and an EC50 (rat mGlu2 receptor; [2]) of over 10 µM.
